Our source for the % of control and % of inhibition values is ChEMBL document CHEMBL5465560, “Selectivity Literature for EUbOPEN Chemogenomic Library” (2024).

The subject of assay [1] is Epidermal growth factor receptor (Homo sapiens), P00533 [G719C]. Briefly: (§1) Selectivity interaction (Ambit KINOMEscan and KiNATiv profiling in Jurkat cells) EUB0000090b EGFR. The assay is classed as cell-based. As to conditions: at 1 µM.
The subject of assay [2] is Epidermal growth factor receptor (Homo sapiens), P00533 [G719S]. The assay is described as §1. The assay is classed as cell-based. The settings on record: at 1 µM.
The test system of assay [3] is Epidermal growth factor receptor (Homo sapiens), P00533 [L858R,T790M]. The assay is described as §1. Format: cell-based. As to conditions: at 1 µM.
For assay [4], the system named is Epidermal growth factor receptor (Homo sapiens), P00533 [L858R]. The assay is described as §1. The assay is classed as cell-based. As to conditions: at 1 µM.
Assay [5] has as its system Epidermal growth factor receptor (Homo sapiens), P00533 [L861Q]. Described as §1. The assay is classed as cell-based. The settings on record: at 1 µM.
Assay [6] has as its system Epidermal growth factor receptor (Homo sapiens), P00533 [T790M]. Described as §1. The settings on record: at 1 µM. Format: cell-based.
For assay [7], the system named is Epidermal growth factor receptor (Homo sapiens), P00533 [UNDEFINED MUTATION]. The assay is described as §1. Format: cell-based. As to conditions: at 1 µM.
Sequence of Epidermal growth factor receptor (Homo sapiens), P00533 [UNDEFINED MUTATION] (P00533 whole entry, looked up, change not shown): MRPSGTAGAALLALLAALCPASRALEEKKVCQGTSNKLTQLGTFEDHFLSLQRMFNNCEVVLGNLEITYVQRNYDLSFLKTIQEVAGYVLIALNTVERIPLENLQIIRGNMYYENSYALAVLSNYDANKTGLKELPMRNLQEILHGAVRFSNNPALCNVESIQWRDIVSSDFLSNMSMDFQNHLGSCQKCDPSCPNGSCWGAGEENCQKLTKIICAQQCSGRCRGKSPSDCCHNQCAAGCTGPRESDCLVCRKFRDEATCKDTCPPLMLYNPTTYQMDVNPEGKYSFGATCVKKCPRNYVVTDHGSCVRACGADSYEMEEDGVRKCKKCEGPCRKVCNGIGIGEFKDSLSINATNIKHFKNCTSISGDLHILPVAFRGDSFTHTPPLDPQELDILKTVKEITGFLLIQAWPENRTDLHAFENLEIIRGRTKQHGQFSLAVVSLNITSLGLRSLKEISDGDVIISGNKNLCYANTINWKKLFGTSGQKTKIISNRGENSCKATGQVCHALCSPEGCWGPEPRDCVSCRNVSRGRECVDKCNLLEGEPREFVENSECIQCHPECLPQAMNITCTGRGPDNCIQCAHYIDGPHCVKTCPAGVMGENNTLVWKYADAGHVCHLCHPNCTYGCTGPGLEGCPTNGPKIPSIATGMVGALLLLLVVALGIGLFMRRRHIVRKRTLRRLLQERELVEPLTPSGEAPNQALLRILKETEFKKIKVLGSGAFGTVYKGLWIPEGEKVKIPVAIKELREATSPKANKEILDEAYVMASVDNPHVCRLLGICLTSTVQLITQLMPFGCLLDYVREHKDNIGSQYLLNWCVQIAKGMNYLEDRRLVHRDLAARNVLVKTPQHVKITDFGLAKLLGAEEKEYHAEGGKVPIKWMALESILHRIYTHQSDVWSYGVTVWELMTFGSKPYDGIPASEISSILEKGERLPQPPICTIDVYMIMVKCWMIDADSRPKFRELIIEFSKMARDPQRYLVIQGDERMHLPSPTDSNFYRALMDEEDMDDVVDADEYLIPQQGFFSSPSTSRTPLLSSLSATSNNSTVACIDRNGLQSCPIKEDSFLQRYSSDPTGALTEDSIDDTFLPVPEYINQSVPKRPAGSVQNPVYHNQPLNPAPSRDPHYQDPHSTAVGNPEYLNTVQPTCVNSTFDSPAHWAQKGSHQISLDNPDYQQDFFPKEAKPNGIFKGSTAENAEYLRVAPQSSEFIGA
The target of assay [8] is Epidermal growth factor receptor (Homo sapiens, UniProt P00533). The assay is described as §1. The assay is classed as cell-based. The settings on record: at 1 µM.
Sequence of Epidermal growth factor receptor (P00533 whole entry): as the sequence (P00533 whole entry, looked up, change not shown) above
The target of assay [9] is Dual specificity mitogen-activated protein kinase kinase 2 (Homo sapiens) (UniProt P36507). The experiment in a line: Selectivity interaction (KinomeScan (DiscoverX)) EUB0000666a MAP2K2. As to conditions: at 10 µM.
For assay [10], the target named is T1, 5-hydroxytryptamine receptor 3A (Homo sapiens) (UniProt P46098).
T1 sequence (whole entry): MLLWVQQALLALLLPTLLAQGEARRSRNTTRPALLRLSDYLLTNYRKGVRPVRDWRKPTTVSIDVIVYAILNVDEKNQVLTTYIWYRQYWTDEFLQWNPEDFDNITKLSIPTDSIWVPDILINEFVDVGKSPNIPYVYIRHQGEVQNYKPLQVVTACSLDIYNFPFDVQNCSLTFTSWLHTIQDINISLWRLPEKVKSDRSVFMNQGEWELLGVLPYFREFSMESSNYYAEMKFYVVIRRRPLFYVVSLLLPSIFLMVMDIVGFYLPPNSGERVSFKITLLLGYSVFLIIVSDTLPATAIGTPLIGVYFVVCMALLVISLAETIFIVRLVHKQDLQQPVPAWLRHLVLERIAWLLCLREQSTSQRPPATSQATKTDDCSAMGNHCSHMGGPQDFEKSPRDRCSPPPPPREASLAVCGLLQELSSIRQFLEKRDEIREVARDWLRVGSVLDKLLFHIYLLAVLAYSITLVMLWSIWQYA
The experiment in a line: Selectivity interaction (GPCR panel (PDSP screen)) EUB0001079a HTR3A. The settings on record: at 10 µM.

Assay [11] concerns the target Calcium/calmodulin-dependent protein kinase type 1B (Homo sapiens) (UniProt Q6P2M8). Briefly: Selectivity interaction (KinomeScan (DiscoverX)) EUB0001079a PNCK. The settings on record: at 1 µM.
Assay [12] addresses Interleukin-1 receptor-associated kinase 1 (Homo sapiens) (UniProt P51617). The experiment in a line: Selectivity interaction (ActivX KiNativ screen (ex vivo kinase selectivity in human PBMCs)) EUB0001619a IRAK1. The assay is classed as cell-based. The settings on record: PBMC, at 1 µM.
The target of assay [13] is Tyrosine-protein kinase CSK (Homo sapiens) (UniProt P41240). Briefly: Selectivity interaction (ActivX KiNativ screen (kinase selectivity in THP-1 cell lysates)) EUB0000639a CSK. The assay is classed as subcellular. As to conditions: lysate.
Sequence of Tyrosine-protein kinase CSK (Homo sapiens) (P41240 2-450 limits assumed): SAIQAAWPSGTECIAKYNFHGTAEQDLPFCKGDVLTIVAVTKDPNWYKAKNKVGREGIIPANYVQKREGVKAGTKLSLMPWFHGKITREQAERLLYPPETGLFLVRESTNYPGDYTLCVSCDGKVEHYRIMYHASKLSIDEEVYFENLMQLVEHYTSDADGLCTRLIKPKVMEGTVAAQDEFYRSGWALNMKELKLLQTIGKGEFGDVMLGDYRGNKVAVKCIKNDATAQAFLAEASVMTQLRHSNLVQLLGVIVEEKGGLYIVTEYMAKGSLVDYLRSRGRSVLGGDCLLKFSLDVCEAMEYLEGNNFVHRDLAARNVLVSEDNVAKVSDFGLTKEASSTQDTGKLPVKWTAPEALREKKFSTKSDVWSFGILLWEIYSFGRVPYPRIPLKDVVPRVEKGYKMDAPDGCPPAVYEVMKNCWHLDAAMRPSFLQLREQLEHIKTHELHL
In assay [14] the target is T2, Inhibitor of nuclear factor kappa-B kinase subunit epsilon (Homo sapiens) (UniProt Q14164).
T2 sequence (whole entry): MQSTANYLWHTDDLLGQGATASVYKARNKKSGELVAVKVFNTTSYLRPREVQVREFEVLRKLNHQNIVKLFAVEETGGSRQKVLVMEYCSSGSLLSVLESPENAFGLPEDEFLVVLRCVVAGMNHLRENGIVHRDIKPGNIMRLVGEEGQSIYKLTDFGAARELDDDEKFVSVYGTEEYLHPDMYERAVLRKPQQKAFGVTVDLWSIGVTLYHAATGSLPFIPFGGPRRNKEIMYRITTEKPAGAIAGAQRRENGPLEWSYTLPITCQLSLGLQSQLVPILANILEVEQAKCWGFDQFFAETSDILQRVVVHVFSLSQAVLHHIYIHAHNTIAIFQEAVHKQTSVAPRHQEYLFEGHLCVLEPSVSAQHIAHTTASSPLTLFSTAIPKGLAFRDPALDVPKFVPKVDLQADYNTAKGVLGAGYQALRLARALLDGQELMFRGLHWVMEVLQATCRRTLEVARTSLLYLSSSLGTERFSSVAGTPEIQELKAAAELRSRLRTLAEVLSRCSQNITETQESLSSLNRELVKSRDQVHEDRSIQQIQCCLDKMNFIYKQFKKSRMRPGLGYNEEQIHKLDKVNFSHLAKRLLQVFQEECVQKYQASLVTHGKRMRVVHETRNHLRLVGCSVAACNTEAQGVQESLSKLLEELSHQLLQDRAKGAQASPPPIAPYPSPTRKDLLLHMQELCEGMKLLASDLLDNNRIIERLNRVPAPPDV
The experiment in a line: Selectivity interaction (KinomeScan (DiscoverX)) EUB0001049a IKBKE. As to conditions: at 1 µM.

For assay [15], the target named is Calcium/calmodulin-dependent protein kinase type II subunit beta (Homo sapiens) (UniProt Q13554). Briefly: Selectivity interaction (ProQinase) EUB0000171b CAMK2B.
Sequence of Calcium/calmodulin-dependent protein kinase type II subunit beta (Homo sapiens) (Q13554 whole entry): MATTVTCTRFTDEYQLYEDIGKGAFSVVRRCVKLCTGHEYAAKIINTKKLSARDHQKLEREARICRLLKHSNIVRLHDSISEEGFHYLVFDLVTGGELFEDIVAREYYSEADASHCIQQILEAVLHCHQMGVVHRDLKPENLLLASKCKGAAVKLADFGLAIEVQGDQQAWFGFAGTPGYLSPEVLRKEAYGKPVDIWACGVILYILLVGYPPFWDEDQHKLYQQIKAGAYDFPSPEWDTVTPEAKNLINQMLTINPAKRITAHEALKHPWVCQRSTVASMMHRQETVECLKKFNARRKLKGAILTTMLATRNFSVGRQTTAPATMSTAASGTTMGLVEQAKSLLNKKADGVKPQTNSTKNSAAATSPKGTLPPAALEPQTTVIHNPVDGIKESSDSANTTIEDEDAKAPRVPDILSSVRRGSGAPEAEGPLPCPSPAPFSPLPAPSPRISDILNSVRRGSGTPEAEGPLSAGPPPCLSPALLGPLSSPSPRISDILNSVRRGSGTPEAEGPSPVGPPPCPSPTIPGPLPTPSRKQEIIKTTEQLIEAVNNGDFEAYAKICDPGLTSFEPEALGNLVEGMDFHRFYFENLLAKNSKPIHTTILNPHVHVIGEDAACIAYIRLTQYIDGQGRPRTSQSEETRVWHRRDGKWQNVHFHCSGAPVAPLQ
Assay [16] deals with Insulin receptor-related protein (Homo sapiens) (UniProt P14616). Briefly: Selectivity interaction (KinomeScan (DiscoverX)) EUB0000092b INSRR. The settings on record: at 10 µM.
For assay [17], the target named is T3, Mitogen-activated protein kinase kinase kinase 7 (Homo sapiens) (UniProt O43318).
T3 sequence (whole entry): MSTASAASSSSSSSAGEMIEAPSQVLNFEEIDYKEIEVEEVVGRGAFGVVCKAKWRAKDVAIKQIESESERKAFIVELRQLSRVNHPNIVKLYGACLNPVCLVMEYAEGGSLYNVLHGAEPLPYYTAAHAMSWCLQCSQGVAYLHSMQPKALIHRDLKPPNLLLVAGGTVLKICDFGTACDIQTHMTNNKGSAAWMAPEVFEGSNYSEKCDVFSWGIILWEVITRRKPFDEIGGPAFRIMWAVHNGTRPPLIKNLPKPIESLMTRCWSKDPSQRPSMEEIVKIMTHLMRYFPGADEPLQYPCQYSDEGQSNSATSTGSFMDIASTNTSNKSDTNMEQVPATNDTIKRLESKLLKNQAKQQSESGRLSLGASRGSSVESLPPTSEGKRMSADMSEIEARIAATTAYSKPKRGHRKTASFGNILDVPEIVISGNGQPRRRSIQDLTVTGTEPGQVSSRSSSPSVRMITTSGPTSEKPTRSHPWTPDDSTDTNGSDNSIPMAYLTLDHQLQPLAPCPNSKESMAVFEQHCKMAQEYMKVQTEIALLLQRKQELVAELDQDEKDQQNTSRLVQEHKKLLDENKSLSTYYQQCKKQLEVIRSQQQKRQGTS
Briefly: Selectivity interaction (KinomeScan (DiscoverX)) EUB0000618a MAP3K7. The settings on record: at 10 µM.

Sequence of Epidermal growth factor receptor (Homo sapiens), P00533 [G719C] (P00533 whole entry G719C): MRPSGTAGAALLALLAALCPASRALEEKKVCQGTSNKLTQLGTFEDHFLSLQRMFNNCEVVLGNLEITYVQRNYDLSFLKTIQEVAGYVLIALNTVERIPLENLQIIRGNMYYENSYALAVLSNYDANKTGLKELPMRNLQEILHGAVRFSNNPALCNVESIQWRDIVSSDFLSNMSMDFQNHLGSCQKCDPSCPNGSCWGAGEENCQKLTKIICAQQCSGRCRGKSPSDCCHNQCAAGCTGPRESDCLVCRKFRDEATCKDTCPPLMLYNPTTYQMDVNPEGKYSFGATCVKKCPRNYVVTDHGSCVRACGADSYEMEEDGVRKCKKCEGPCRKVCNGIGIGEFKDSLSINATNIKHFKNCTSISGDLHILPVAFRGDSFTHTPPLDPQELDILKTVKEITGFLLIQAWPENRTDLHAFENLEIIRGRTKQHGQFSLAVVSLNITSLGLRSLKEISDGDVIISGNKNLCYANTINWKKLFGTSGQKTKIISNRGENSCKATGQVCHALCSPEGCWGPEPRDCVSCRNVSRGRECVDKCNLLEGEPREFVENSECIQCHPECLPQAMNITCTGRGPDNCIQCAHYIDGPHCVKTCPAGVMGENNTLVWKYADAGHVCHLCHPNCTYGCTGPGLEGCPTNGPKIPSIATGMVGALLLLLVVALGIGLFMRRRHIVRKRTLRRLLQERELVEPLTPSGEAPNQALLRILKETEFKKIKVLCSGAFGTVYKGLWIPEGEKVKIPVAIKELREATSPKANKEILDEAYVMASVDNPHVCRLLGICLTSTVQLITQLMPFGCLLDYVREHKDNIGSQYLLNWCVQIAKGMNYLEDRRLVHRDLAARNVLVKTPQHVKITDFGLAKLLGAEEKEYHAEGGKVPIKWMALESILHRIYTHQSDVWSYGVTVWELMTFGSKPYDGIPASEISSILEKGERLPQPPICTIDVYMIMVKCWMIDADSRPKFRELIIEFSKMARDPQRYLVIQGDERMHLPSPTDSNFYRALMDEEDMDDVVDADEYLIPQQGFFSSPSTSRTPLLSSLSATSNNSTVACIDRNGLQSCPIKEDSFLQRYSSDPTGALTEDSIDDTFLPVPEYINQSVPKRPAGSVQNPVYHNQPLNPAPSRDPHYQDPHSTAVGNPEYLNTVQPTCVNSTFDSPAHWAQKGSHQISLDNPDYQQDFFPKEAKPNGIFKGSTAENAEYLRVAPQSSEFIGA
Sequence of Calcium/calmodulin-dependent protein kinase type 1B (Homo sapiens) (Q6P2M8 whole entry): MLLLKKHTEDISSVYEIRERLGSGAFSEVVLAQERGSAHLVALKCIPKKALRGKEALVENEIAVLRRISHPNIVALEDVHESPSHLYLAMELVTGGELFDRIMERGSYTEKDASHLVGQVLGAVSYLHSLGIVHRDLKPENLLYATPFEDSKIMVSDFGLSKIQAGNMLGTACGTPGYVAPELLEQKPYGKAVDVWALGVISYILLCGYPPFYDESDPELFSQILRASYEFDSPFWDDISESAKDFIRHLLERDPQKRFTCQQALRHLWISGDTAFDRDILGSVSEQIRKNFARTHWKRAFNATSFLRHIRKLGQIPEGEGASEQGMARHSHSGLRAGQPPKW

For `CN(C)C/C=C/C(=O)Nc1ccc(C(=O)N2CCCC(Nc3ncc(Cl)c(-c4c[nH]c5ccccc45)n3)C2)cc1` (configuration not stated), the % of control is 88% in assay [1]; 91% in assay [2]; 90% in assay [3]; 100% in [4]; 71% in assay [5]; 99% in [6]. Also, the % of control in assay [7] amounted to 70%; in [8], 99%.
Compound `O=C(NOC[C@H](O)CO)c1ccc(F)c(F)c1Nc1ccc(I)cc1F` returned a % of control in assay [9] of 0.2%.
For the compound `Nc1cnc(N2CCc3cc(S(=O)(=O)Nc4c(F)cc(Cl)cc4F)cc(N4CCCC4=O)c32)nc1` [TP-020n], the % of inhibition in assay [10] stood at 0.32%. Besides, the % of control in assay [11] was found to be 67%.
On to `N#Cc1cccc(-c2c[nH]c3ncnc(N4CCOCC4)c23)c1`, for which the % of inhibition in [12] stood at 2%.
With `CC[C@@H]1[C@H](F)C(=O)N[C@@H]1COc1nccc2cc(C(N)=O)c(OC)cc12` [ZIMLOVISERTIB], the % of inhibition is 4.3% in [13] (at 0.01 µM); -0.3% in assay [13] (at 0.04 µM); -3.8% in [13] (at 0.2 µM); 10.3% in [13] (at 1 µM); -8.3% in assay [13] (at 5 µM).
The compound `COc1cc(Nc2nc(C)cc(-c3cnn4nc(OC)ccc34)n2)cc(C(F)(F)F)c1` showed a % of control in assay [14] of 83%.
For `C=CC(=O)Nc1cccc(C(=O)Nc2ccc(Nc3cc(-c4[nH]c(SC)nc4C)ccn3)cc2)c1`, the results for the % of control in assay [15] (at 1 µM) and in [15] (at 5 µM) were 97% and 79%, respectively.
`CCC(=O)N1CCN(c2ccc(-n3c(=O)ccc4cnc5ccc(-c6cnc7ccccc7c6)cc5c43)cc2C(F)(F)F)CC1`: in [16], the % of control was found to be 100%.
In turn, `O[C@H]1CC[C@H](Nc2ncc3nc(Nc4c(F)cc(F)cc4F)n([C@H]4CCOC4)c3n2)CC1` returned a % of control in [17] of 99%.
